Our source for the IC50 values is patent EP0612731B1, “Novel guinolone and naphthyridone derivatives” (BAYER AG, priority 1993, dated 1994).

The test system of this assay is HIV. Nature of the assay: HIV infection in cell culture (syncytium formation in HIV-infected PBLs, modified method of Pauwels et al.). The settings on record: Human immunodeficiency virus 1, Lymphocyte, 72 h; HIV-infected normal human blood lymphocytes (PBL's); concentration suppressing 50% (ca. 10 Syncytien) of virus-induced syncytia; microscopic read-out day 3 to 6 after infection, 37°C. The format is cell-based. Here is the method:
Der HIV-Test wurde mit geringen Modifikationen nach der Methode von Pauwels et al. [vgl. Journal of Virological Methods 20, (1988), 309-321] durchgeführt.
Normale menschliche Blutlymphozyten (PBL's) wurden über Ficoll-Hypaque angereichert und im RPMI 1640, 20% fötales Kälberserum mit Phythaemagglutinin (90 µg/ml) und Interleukin-2 (40 U/ml) stimuliert. Zur Infektion mit dem infektiösen HIV wurden PBL's pelletiert und das Zellpellet wurde anschließend in 1 ml HIV-Virusadsorptionslösung suspendiert und 1 Stunde bei 37°C inkubiert.
Die Virusadsorptionslösung wurde zentrifugiert und das infizierte Zellpellet in Wachstumsmedium aufgenommen, so daß 1 x 10^5 Zellen pro ml eingestellt waren. Die derart infizierten Zellen wurden zu 1 x 10^4 Zellen/Napf in die Näpfe von 96er Mikrotiterplatten pipettiert.
Die erste vertikale Reihe der Mikrotiterplatte enthielt nur Wachstumsmedium und Zellen, die nicht infiziert, aber ansonsten genauso wie oben beschrieben, behandelt worden waren (Zellkontrolle). Die zweite vertikale Reihe der Mikrotiterplatte erhielt nur HIV-infizierte Zellen (Viruskontrolle) in Wachstumsmedium. Die übrigen Näpfe enthielten die erfindungsgemäßen Verbindungen in unterschiedlichen Konzentrationen, ausgehend von den Näpfen der 3. vertikalen Reihe der Mikrotiterplatte, von der die Prüfsubstanzen in 2er Schritten 2^10fach verdünnt wurden.
Die Testansätze wurden so lange bei 37°C inkubiert, bis in der unbehandelten Viruskontrolle die für das HIV typische Syncytienbildung auftrat (zwischen Tag 3 und 6 nach Infektion), die dann mikroskopisch ausgewertet wurde. In der unbehandelten Viruskontrolle resultierten unter diesen Testbedingungen etwa 20 Syncytien, während die unbehandelte Zellkontrolle keine Syncytien aufwies.
Die IC50-Werte wurden als die Konzentration der erfindungsgemäßen Verbindungen ermittelt, bei der 50% (ca. 10 Syncytien) der virusinduzierten Syncytien durch die Behandlung mit der erfindungsgemäßen Verbindung unterdruckt waren.
As usually defined, the IC50 is the concentration at which inhibition is half-maximal. As for `COc1cccc(N2CCN(c3cc4c(cc3F)c(=O)c(C(=O)O)cn4-c3ccc(Cn4ccnn4)cc3)CC2)c1` [Beispiel 8], the IC50 was 3 µM.

Regarding `O=C(O)c1cn(-c2ccc(Cn3ccnn3)cc2)c2cc(N3CCN(c4cccc(Cl)c4)CC3)c(F)cc2c1=O` [Beispiel 14], the IC50 was 0.7 µM.

Turning to `O=C(O)c1cn(-c2ccc(Cn3ccnn3)cc2)c2nc(N3CCN(c4ccccc4)CC3)c(F)cc2c1=O` [Beispiel 20, 6-Fluor-1,4-dihydro-4-oxo-7-(4-phenylpiperazin-1-yl)-1-[4-(1H-1,2,3-triazol-1-yl-methyl)-phenyl]-1,8-naphthyridin-3-carbonsäure], the IC50 was 0.2 µM.

Turning to `O=C(O)c1cn(-c2ccc(Cn3ccnn3)cc2)c2nc(N3CCN(c4cccc(Cl)c4)CC3)c(F)cc2c1=O` [Beispiel 23], the IC50 was determined as 0.4 µM.

Consider `O=C(O)c1cn(-c2ccc(Cn3nccn3)cc2)c2cc(N3CCN(c4cccc(Cl)c4)CC3)c(F)cc2c1=O` [Beispiel 31], for which the IC50 is 0.7 µM.

Consider `O=C(O)c1cn(-c2ccc(Cn3cncn3)cc2)c2cc(N3CCN(c4ccccc4)CC3)c(F)cc2c1=O` [Beispiel 39, 6-Fluor-1,4-dihydro-4-oxo-7-(4-phenylpiperazin-1-yl)-1-[4-(1H-1,2,4-triazol-1-yl-methyl)phenyl]-3-chinolin-carbonsäure], for which the IC50 is 0.25 µM.

On to `O=C(O)c1cn(-c2ccc(Cn3cncn3)cc2)c2nc(N3CCN(c4ccccc4)CC3)c(F)cc2c1=O` [Beispiel 50, 6-Fluor-1,4-dihydro-4-oxo-7-(4-phenylpiperazin-1-yl)-1-[4-(1H-1,2,4-triazol-1-yl-methyl)phenyl]-1,8-naphthyridin-3-carbonsäure], for which the IC50 came out at 0.5 µM.

For `O=C(O)c1cn(-c2ccc(Cn3cncn3)cc2)c2nc(N3CCN(c4ccc(F)cc4)CC3)c(F)cc2c1=O` [Beispiel 51], the IC50 amounted to 0.2 µM.

For `O=C(O)c1cn(-c2cccc(Cn3ccnn3)c2)c2cc(N3CCN(c4cccc(Cl)c4)CC3)c(F)cc2c1=O` [Beispiel 69], the IC50 turned out to be 0.7 µM.

Regarding `O=C(O)c1cn(-c2cccc(Cn3cncn3)c2)c2nc(N3CCN(c4ccc(Cl)cc4)CC3)c(F)cc2c1=O` [Beispiel 92], the IC50 was determined as 0.6 µM.

In the case of `CCOC(=O)c1cn(-c2ccccc2Cn2nccn2)c2cc(N3CCN(c4cccc(Cl)c4)CC3)c(F)cc2c1=O` [Beispiel 113], the IC50 worked out at 2 µM.

On to `CCOc1ccccc1N1CCN(c2c(F)cc3c(=O)c(C(=O)O)cn(-c4ccc(Cn5cncn5)cc4)c3c2F)CC1` [Beispiel 146], for which the IC50 turned out to be 0.7 µM.
